Read-outs that look alike come from different tables or passages of the source. Marks after values point to notes of the source that are not given here.

Results on 5 compounds are retold here after publication PMC8113290, “[^11C]MODAG-001—towards a PET tracer targeting α-synuclein aggregates” (European Journal of Nuclear Medicine and Molecular Imaging, 2020).

For series [1], the target named is recombinant αSYN fibrils. As to conditions: cited from earlier work.
The nature of series [2]: In vivo PET imaging in mice (brain uptake). As to conditions: mouse, i.v. injection, one exemplary animal. How it is done: PET imaging was performed on a dedicated small animal Inveon PET scanner (Siemens Healthcare, Knoxville (TN), USA). Mice and rats were anesthetized with 1.5–1.7% isoflurane evaporated in 100% oxygen at a flow rate of 0.8 L/min, which was maintained during the entire experiment. After a tail vein catheter was placed, the animal was positioned in the center of the field of view (FOV) on an MR-compatible PET bed that was connected to a feedback temperature control unit set to 37 °C. Mice were injected intravenously (i.v.) with 17 ± 2 MBq [^11C]MODAG-001 (n = 3) or 12 ± 1 MBq (d3)-[^11C]MODAG-001 (n = 5) 5 s after the start of the PET acquisition. […]
Whole body mouse PET scans were coregistered to the whole body MR scan, which was sequentially acquired after the PET scan, and the volumes of interest (VOIs) of the lung, liver, heart, brain, and kidneys were drawn by hand based on the MR anatomical information using PMOD software (version 3.2; PMOD Technologies, Zürich, Switzerland). VOIs of different brain regions were extracted using the mouse or rat brain atlas provided by PMOD [10-12], and tissue time activity curves (TACs) were calculated and are expressed as standardized uptake values (SUVs), which were calculated as follows: SUV(t) = radioactivity concentration (kBq/mL of the organ)/(injected dose [kBq]/body weight [g]). […]

A short description of series [3]: Radio-metabolite analysis in mouse plasma and brain by radio-HPLC. The series is classed as in vivo. As to conditions: for M3 % / M3 %ID: metabolite 3; for M2* % / M2* %ID: mixture of various metabolites. How it is done: For metabolite analysis, mice were i.v. injected with 91 ± 24 MBq of [^11C]MODAG-001 (n = 4 per time point) or 120 ± 41 MBq of (d3)-[^11C]MODAG-001 (n = 3 per time point) using a tail vein catheter. Five and 15 min after injection, plasma and brain homogenates were analyzed using radio-HPLC (for detailed information see supplemental material and methods section).
A 400 µL blood sample was collected by heart puncture five or 15 minutes after tracer injection. The blood was centrifuged at 17,000 x g and 4 °C for two minutes, and the plasma was transferred to a 1.5 mL reaction tube on ice for further analysis. After blood collection, mice were transcardially perfused (10 mL/min) with 20 mL of ice-cold PBS, and the brain of each mouse was removed from the skull. The brain was transferred to a glass tube (2 mL Dounce tissue grinder set, Sigma Aldrich Chemie GmbH) containing 0.5 mL of ice-cold PBS, sequentially homogenized using large and small clearance pestles and transferred to a 1.5 mL reaction tube on ice for further analysis. Plasma or brain homogenate was mixed 1:1 with acetonitrile and briefly centrifuged. After two minutes of incubation on ice, each mixture was centrifuged at room temperature for 1.5 minutes at 12,000 x g (MiniSpin®, Eppendorf AG) to remove precipitated proteins. The supernatant was subjected to reversed-phase HPLC on a Luna Phenyl Hexyl column (5 µm, 100 Å, 300 mm x 4.6 mm, Phenomenex) equipped with a radioactivity detector with 0.1 % trifluoroacetic acid in water/acetonitrile (70:30) at an isocratic flow rate of 1.5 mL/min.
For data analysis, the median of ten consecutive data points was calculated to remove noise; data were corrected for radioactive decay to time zero, defined as start of the HPLC of the five minute brain sample. This time zero radioactivity was plotted against time using Origin software (OriginLab Corporation, version 9.1G, Northampton, MA, USA). The area under the curve was calculated in % using the peak analyzer function and scaled up that the peaks add up to 100 %. The area under the curve was transformed into radioactivity values using a standard of [^11C]MODAG-001 with known radioactivity also corrected for decay and expressed as % injected radioactivity dose (%ID) per gram of brain tissue or per plasma in one mL of blood.

Series [4] deals with T1, αSYN fibrils inoculated into the right striatum (Homo sapiens, UniProt P37840).
T1 construct: made in house; host or cells: E. coli BL21(DE3)pLys
The series can be described thus: In vivo PET imaging in αSYN fibril-inoculated rats. Set-up: species or system rat. As to conditions: for mean distribution volume ratio (DVR)-1 40-60min (binding potential): 4 days post inoculation. How it is done:
Rats were inoculated with αSYN fibrils (4 μL, 30 μM) into the right striatum (see supplementary material and methods section for a detailed description) and scanned 4 days post-inoculation with 23 ± 1 MBq of (d3)-[^11C]MODAG-001.
Data acquisition, correction, framing and reconstruction, volume of interest (VOI) definition, and determination of binding parameters are described in detail in the supplementary material and methods section.
Rats were allowed to adapt for two weeks in the animal facility before fibril injection. Three adult female rats were anaesthetized with an intraperitoneal (i.p.) injection of a mixture of fentanyl (0.005 mg/kg), midazolam (2 mg/kg), and medetomidine (0.15 mg/kg) at 1 mL/kg. The head of each rat was shaved, and the animal was placed into a stereotaxic frame. A central incision was made to expose the bregma and lambda. A 5 µL syringe needle (Hamilton Company, Reno (NV), USA) was enclosed with a glass capillary (inner diameter, 50 µm, Hilgenberg GmbH, Malsfeld, Germany). αSYN fibrils (4 µL, 30 µM) were injected using a stereotaxic injector (Stoelting, Wood Lane, IL, USA) through a drill hole into the right striatum (ML= -3.2 mm, AP = 0.0 mm, DV = -4.8 mm) according to the stereotaxic atlas of Paxinos and Watson [9][. Based on the volume of the right striatum (0.04 cm^3), the concentration of inoculated fibrils was calculated as 2.8 µM. As a negative control, 4 µL of vehicle (50 mM Tris base, 100 mM sodium chloride, 0.02 % sodium azide, pH 7.0) were injected into the contralateral striatum. A total fibril volume of 4 µL was obtained by the injection of 0.4 µL every 60 seconds. To allow for diffusion of the fibrils into the tissue, the needle was left in this position for five minutes. […]
Whole body mouse PET scans were coregistered to the whole body MR scan, which was sequentially acquired after the PET scan, and the volumes of interest (VOIs) of the lung, liver, heart, brain, and kidneys were drawn by hand based on the MR anatomical information using PMOD software (version 3.2; PMOD Technologies, Zürich, Switzerland). VOIs of different brain regions were extracted using the mouse or rat brain atlas provided by PMOD [10-12], and tissue time activity curves (TACs) were calculated and are expressed as standardized uptake values (SUVs), which were calculated as follows: SUV(t) = radioactivity concentration (kBq/mL of the organ)/(injected dose [kBq]/body weight [g]). […] Distribution volume ratio 1 (DVR-1) values were calculated from individual TACs from 40 to 60 minutes, using the vehicle-injected striatum as a reference region, with the following formula: activity in fibril inoculated right striatum/activity in vehicle injected left striatum) - 1. […]

Series [5] relates to αSYN and Aβ1–42 fibrils. On the set-up: method as in PMID 29989823. As to conditions: similar rat model, despite good cerebral uptake and high Am ref 30; cited from earlier work.
[6] abbreviates: mouse brain, 5 min after injection.
[7] abbreviates: mouse brain, 5 min after injection, parent compound.
Where [8] appears, read: mouse brain, 15 min after injection, metabolite 1.
[9] abbreviates: mouse brain, 15 min after injection.
[10] abbreviates: mouse brain, 15 min after injection, parent compound.
[11] abbreviates: mouse plasma, 5 min after injection, metabolite 1.
The mark [12] stands for this setting: mouse plasma, 5 min after injection.
The mark [13] stands for this setting: mouse plasma, 5 min after injection, parent compound.
The mark [14] stands for this setting: mouse plasma, 15 min after injection, metabolite 1.
The mark [15] stands for this setting: mouse plasma, 15 min after injection.
Setting [16] is: mouse plasma, 15 min after injection, parent compound.

`O=[N+]([O-])c1ccc2c(c1)Sc1cc(OC/C=C/I)ccc1N2` [[^125I]SIL23]: in series [1] (recombinant αSYN fibrils ref 24), the Kd was 148 nM.

On to `[2H]C([2H])([2H])N([11CH3])c1ccc(-c2cc(-c3ccnc(Br)c3)[nH]n2)cc1` [(d3)-[^11C]MODAG-001], for which the “peak standardized uptake value (SUV) in brain” value in series [2] came out at 1.7. Also, the “M1 %ID” value in series [3] (mouse brain, 5 min after injection, metabolite 1) is 0.4* %ID per g brain tissue; in series [3] (setting [8]), 0.4* %ID per g brain tissue; in series [3] (setting [11]) it was 0.6^# %ID per plasma in 1 mL blood; in series [3] (setting [14]), 0.8^# %ID per plasma in 1 mL blood. Also, the M1 % in series [3] (mouse brain, 5 min after injection, metabolite 1, % of radioactivity) is on record as 5%; in series [3] (setting [8]), 5%; in series [3] (setting [11]) it was 21%; in series [3] (setting [14]), 30%. The M3 % in series [3] (setting [6]) came out at 2%; in series [3] (setting [9]), 8%; in series [3] (setting [12]), 6%; in series [3] (setting [15]), 4%. In addition, the “M3 %ID” value in series [3] (setting [6]) is on record as 0.2* %ID per g brain tissue; in series [3] (setting [9]) it was 0.7* %ID per g brain tissue; in series [3] (setting [12]), 0.1^# %ID per plasma in 1 mL blood; in series [3] (setting [15]) it was 0.1^# %ID per plasma in 1 mL blood. The P % turned out to be 93% in series [3] (setting [7]), 87% in series [3] (setting [10]), 39% in series [3] (setting [13]) and 30% in series [3] (setting [16]). The “P %ID” value in series [3] (setting [7]) is recorded as 8.8 %ID per g brain tissue; in series [3] (setting [10]), 7.2 %ID per g brain tissue; in series [3] (setting [13]) it was 1.0^# %ID per plasma in 1 mL blood; in series [3] (setting [16]), 0.8^# %ID per plasma in 1 mL blood. Also, the “M2* %” value was found to be 34% in series [3] (setting [12]) and 36% in series [3] (setting [15]). Also, the “M2* %ID” value in series [3] (setting [12]) is 0.9^# %ID per plasma in 1 mL blood; in series [3] (setting [15]) it was 1.0^# %ID per plasma in 1 mL blood. Moreover, the “mean distribution volume ratio (DVR)-1 40-60min (binding potential)” value stood at 0.44 ± 0.21 in series [4] (70% automatic isocontour VOI, contralateral side as reference) and 0.14 ± 0.1 in series [4] (whole striatum VOI, contralateral vehicle-injected striatum as reference). For the same compound, the “peak SUV” value in series [4] (left striatum of fibril-inoculated rats) was found to be 2.1 ± 0.1; in series [4] (non-injected control rat), 2.1.

On to `CN(c1ccc(/C=C/c2nc3ccccc3o2)cc1)S(=O)(=O)c1ccccc1[18F]` [[^18F]2FBox], for which, in series [5], the binding in vivo entry was “no binding was observed in vivo”.

For `CN(C)c1ncc(C=Cc2nc3ccc(OCCF)cc3o2)s1` [[^18F]BF-227], in series [1] (recombinant αSYN fibrils ref 26), the dissociation constant Kd is 9.6 nM. Also, in series [5], the binding in vivo entry was “no binding was observed in vivo”.

With `CN([11CH3])c1ccc(-c2cc(-c3ccnc(Br)c3)[nH]n2)cc1` [[^11C]MODAG-001], in series [2], the “peak standardized uptake value (SUV) in brain” value is given as 1.4. In series [3] (intravenous, mouse brain, 5 min after injection, parent compound, read-out: P %ID), the tissue uptake at 5 min was determined as 10.5 %ID/g. In series [3] (intravenous, mouse brain, 15 min after injection, parent compound, read-out: P %ID), the tissue uptake at 15 min came to 5.3 %ID/g. Besides, the P % is given as 91% in series [3] (setting [7]), 81% in series [3] (setting [10]), 26% in series [3] (setting [13]) and 24% in series [3] (setting [16]). In addition, the “P %ID” value in series [3] (setting [7]) is 10.5* %ID per g brain tissue; in series [3] (setting [10]) it was 5.3* %ID per g brain tissue; in series [3] (setting [13]) it was 0.8^# %ID per plasma in 1 mL blood; in series [3] (setting [16]), 0.7^# %ID per plasma in 1 mL blood.

In general, Kd refers to a measure of binding affinity in units of concentration.
